Data as given in patent publication US6596702B2, “Compositions for use in rehydration and nutrition during athletic exercise and methods of making same” (Elan Drug Delivery Limited, priority 1994, dated 2003).

What was measured:
[1] = Blood glucose levels with trehalose as carbohydrate source in a sports beverage; assay type: in vivo; conditions: trehalose as primary carbohydrate source in sports beverages
[2] = Osmolarity of aqueous trehalose solution (Roebling Micro-Osmometer); assay type: physicochemical
Protocol: 5.0 to 11.34 g of trehalose dihydrate is dry blended at an rpm greater than 18,000 until the consistency of is a uniform powder. Thereafter, the trehalose dihydrate is dissolved in distilled deionized water to a final volume of 100 mL and an osmolarity of 300 mOsm or less. For 11.34 g of trehalose the measured value was 287 mOsm. Measurement of the osmolarity of the final mixture is made on a Roebling Micro-Osmometer.

[3] = Tolerability of trehalose; assay type: in vivo; conditions: humans

Which results are given for OC[C@H]1O[C@H](O[C@H]2O[C@H](CO)[C@@H](O)[C@H](O)[C@H]2O)[C@H](O)[C@@H](O)[C@@H]1O [trehalose, α-D-glucopyranosyl-α-D-glucopyranoside]?
blood glucose levels over that of glucose alone [1]: two-fold; osmolarity ([2]; 1 molar solution of trehalose): 1665 mOsm; osmolarity, measured value ([2]; 11.34 g trehalose dihydrate dissolved in distilled deionized water to a final volume of 100 mL): 287 mOsm; osmolarity ([2]; 11.34 g trehalose dihydrate in distilled deionized water, final volume 100 mL, stated isotonic value): 300 mOsm; tolerability [3]: well tolerated
